Experimental data: US12421230B2, “Tricyclic heteroaryl compounds useful as IRAK4 inhibitors” (BRISTOL-MYERS SQUIBB COMPANY, priority 2020, dated 2025)

Columns and labels:
IRAK4 = molecular target: T1, IRAK4 (Homo sapiens, UniProt Q9NWZ3); test: IRAK4 Inhibition Assay; type: biochemical; settings: ATP 500 μM; fluoresceinated peptide 1.5 μM; IRAK4 0.6 nM; 60 min room temperature; Caliper LABCHIP
T1 sequence (Q9NWZ3 1-460): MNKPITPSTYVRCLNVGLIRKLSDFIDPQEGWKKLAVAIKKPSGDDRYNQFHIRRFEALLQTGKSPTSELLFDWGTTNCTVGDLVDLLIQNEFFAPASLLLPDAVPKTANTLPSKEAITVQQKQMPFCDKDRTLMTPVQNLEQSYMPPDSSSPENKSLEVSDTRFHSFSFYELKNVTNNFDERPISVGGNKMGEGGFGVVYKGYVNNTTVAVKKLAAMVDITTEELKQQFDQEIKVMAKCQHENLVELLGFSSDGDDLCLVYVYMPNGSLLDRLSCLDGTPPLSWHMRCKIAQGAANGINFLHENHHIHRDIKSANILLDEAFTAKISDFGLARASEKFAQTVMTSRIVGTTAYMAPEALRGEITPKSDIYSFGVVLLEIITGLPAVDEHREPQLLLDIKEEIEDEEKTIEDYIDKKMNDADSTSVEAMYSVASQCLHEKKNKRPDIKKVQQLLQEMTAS
Procedure: The assays were performed in U-bottom 384-well plates. The final assay volume was 30 μL prepared from 15 μL additions of enzyme and substrates (fluoresceinated peptide and ATP) and test compounds in assay buffer (20 mM HEPES pH 7.2, 10 mM MgCl2, 0.015% Brij 35 and 4 mM DTT). The reaction was initiated by the combination of IRAK4 with substrates and test compounds. The reaction mixture was incubated at room temperature for 60 min. and terminated by adding 45 μL of 35 mM EDTA to each sample. The reaction mixture was analyzed on the Caliper LABCHIP® 3000 (Caliper, Hopkinton, MA) by electrophoretic separation of the fluorescent substrate and phosphorylated product. Inhibition data were calculated by comparison to no enzyme control reactions for 100% inhibition and vehicle-only reactions for 0% inhibition. The final concentrations of reagents in the assays are ATP, 500 μM; FL-IPTSPITTTYFFFKKK peptide 1.5 μM; IRAK4, 0.6 nM; and DMSO, 1.6%.

Human whole blood = test: IRAK4 Whole Blood Assay; type: cell-based; settings: stimulated with TLR2 agonist lipoteichoic acid 10 μg/mL for 5 hours, IL-6 levels
Procedure: Human whole blood containing the anti-coagulant ACD-A was plated in 384-well plate (25 μL/well) and incubated with compounds for 60 minutes at 37° C. in a 5% CO2 incubator. The blood was stimulated with a TLR2 agonist, 10 μg/mL final concentration of lipoteichoic acid (Invivogen, San Diego, CA) in 25 μL RPMI (Gibco) for 5 hours in a 5% CO2 incubator. At the end of the incubation, plates were centrifuged at 2300 rpm for 5 minutes. Supernatants were harvested and analyzed for IL-6 levels by Flow Cytometry beads assay (BD Biosciences, San Jose, CA).

Structure (SMILES)	IC50 (IRAK4) [nM]	EC50 (Human whole blood) [nM]
CC(C)(O)CCNC(=O)c1cnc2c([nH]c3cc(C#N)ccc32)c1NC(C)(C)C [Example 40, 4-(tert-butylamino)-7-cyano-N-(3-hydroxy-3-methylbutyl)-5H-pyrido[3,2-b]indole-3-carboxamide]	6.3	1600
CC(C)Nc1c(C(=O)NCCC2CC2)cnc2c1[nH]c1cc(C#N)ccc12 [Example 34, 7-cyano-N-(2-cyclopropylethyl)-4-(isopropylamino)-5H-pyrido[3,2-b]indole-3-carboxamide]	3.4	580
CC(C)Nc1c(-c2cn(C3CCNCC3)nn2)cnc2c1[nH]c1cc(C#N)ccc12 [Example 75, 4-(isopropylamino)-3-(1-(piperidin-4-yl)-1H-1,2,3-triazol-4-yl)-5H-pyrido[3,2-b]indole-7-carbonitrile]	1.5	930
CC(C)(O)CCNC(=O)c1cnc2c([nH]c3cc(C#N)ccc32)c1NC1CC1 [Example 46, 7-cyano-4-(cyclopropylamino)-N-(3-hydroxy-3-methylbutyl)-5H-pyrido[3,2-b]indole-3-carboxamide]	2.6	740
CC(C)Nc1c(C(=O)NC[C@@H](F)C(C)(C)O)cnc2c1[nH]c1cc(-c3cncs3)ccc12 [Example 66, (R)—N-(2-fluoro-3-hydroxy-3-methylbutyl)-4-(isopropylamino)-7-(thiazol-5-yl)-5H-pyrido[3,2-b]indole-3-carboxamide]	8.6	1240
CC(C)Nc1c(C(=O)NCCC(C)(C)O)cnc2c1[nH]c1cc(C#N)ccc12 [Example 5, 7-cyano-N-(3-hydroxy-3-methylbutyl)-4-(isopropylamino)-5H-pyrido[3,2-b]indole-3-carboxamide]	3.8	1440
CC(C)Nc1c(C(=O)NCCC2(O)CC(F)(F)C2)cnc2c1[nH]c1cc(C#N)ccc12 [Example 43, 7-cyano-N-(2-(3,3-difluoro-1-hydroxycyclobutyl)ethyl)-4-(isopropylamino)-5H-pyrido[3,2-b]indole-3-carboxamide]	2.5	740
CC(C)Nc1c(-c2cc(C3CCCCN3)no2)cnc2c1[nH]c1cc(C#N)ccc12 (stereo not shown) [Example 80, 4-(isopropylamino)-3-(3-(piperidin-2-yl)isoxazol-5-yl)-5H-pyrido[3,2-b]indole-7-carbonitrile]	18	3310
CC(C)Nc1c(-c2cc(C3CCNCC3)no2)cnc2c1[nH]c1cc(C#N)ccc12 [Example 76, 4-(isopropylamino)-3-(3-(piperidin-4-yl)isoxazol-5-yl)-5H-pyrido[3,2-b]indole-7-carbonitrile]	2.3	820

More lines, in order of falling IC50 (IRAK4), values ahead:

IC50 (IRAK4) [nM]	EC50 (Human whole blood) [nM]	Structure (SMILES)
18	610	CCNc1c(C(=O)NCCC2CCCN2)cnc2c1[nH]c1cc(C#N)ccc12 (stereo not shown) [Example 57, 7-cyano-4-(ethylamino)-N-(2-(pyrrolidin-2-yl)ethyl)-5H-pyrido[3,2-b]indole-3-carboxamide]
3.5	1500	CC(O)CCNC(=O)c1cnc2c([nH]c3cc(C#N)ccc32)c1NC(C)C (stereo not shown) [Example 25, 7-cyano-N-(3-hydroxybutyl)-4-(isopropylamino)-5H-pyrido[3,2-b]indole-3-carboxamide]
3.3	12300	CC(C)Nc1c(C(=O)NCCN2CCS(=O)(=O)CC2)cnc2c1[nH]c1cc(C#N)ccc12 [Example 62, 7-cyano-N-(2-(1,1-dioxidothiomorpholino)ethyl)-4-(isopropylamino)-5H-pyrido[3,2-b]indole-3-carboxamide]
2.1	1340	CC(C)CCNC(=O)c1cnc2c([nH]c3cc(C#N)ccc32)c1NC(C)C [Example 21, 7-cyano-N-isopentyl-4-(isopropylamino)-5H-pyrido[3,2-b] indole carboxamide]
1.6	1300	CCNc1c(C(=O)NC[C@@H](F)C(C)(C)O)cnc2c1[nH]c1cc(C#N)ccc12 [Example 2, (R)-7-cyano-4-(ethylamino)-N-(2-fluoro-3-hydroxy-3-methylbutyl)-5H-pyrido[3,2-b]indole-3-carboxamide]
